What all share (assay type): in vivo
The test system of test [1] is Alopecurus myosuroides. The test is described as follows: Glasshouse assay for herbicidal activity, post-emergence, ALOMY. The note with it: Alopecurus myosuroides, 312 h, 250 g/ha, visual 13 days after application, 100%=total damage, read-out: Percentage phytotoxicity ALOMY. As to the method: (§1) Seeds of a variety of test plant species were sown in standard soil ** in pots. After cultivation for one day (pre-emergence) or after 8 days cultivation (post-emergence) under controlled conditions in a glasshouse (at 24/16° C., day/night; 14 hours light; 65% humidity), the plants were sprayed with an aqueous spray solution derived from the formulation of the technical active ingredient (the test herbicide) in acetone/water (50:50) solution containing 0.5% Tween 20 (polyoxyethylene sorbitan monolaurate, CAS Reg. No. 9005-64-5). The test plants were then grown on under controlled conditions in a glasshouse (at 24/16° C., day/night; 14 hours light; 65% humidity) and watered twice daily. 13 Days after application of the test herbicide, for pre- and post-emergence, the test was evaluated visually for percentage phytotoxicity to each plant (where 100%=total damage to plant; 0%=no damage to plant). Generally, each test herbicide is only tested on 1 plant per plant species for each application rate tested and for each application timing. The “standard soil” in Biological Example 1 is usually a “sand” or “sandy loam” type of soil. Biological Example 1—Post-Emergence Application—Herbicidal Activity Results (Percentage Phytotoxicity) Dicotyledonous weeds: ABUTH=Abutilon theophrasti; AMARE=Amaranthus retroflexus. Grassy monocotyledonous weeds: SETFA=Setaria faberi; ALOMY=Alopecurus myosuroides; ECHCG=Echinochloa crus-galli; ZEAMX=Zea mays (corn, maize, e.g. volunteer corn).

Test [2] has as its system Amaranthus retroflexus. Briefly: Glasshouse assay for herbicidal activity, post-emergence, AMARE. The note with it: Amaranthus retroflexus, 312 h, 250 g/ha, visual 13 days after application, 100%=total damage, read-out: Percentage phytotoxicity AMARE. The protocol:
as §1

The subject of test [3] is Echinochloa crus-galli. The test is described as follows: Glasshouse assay for herbicidal activity, post-emergence, ECHCG. The note with it: Echinochloa crus-galli, 312 h, 250 g/ha, visual 13 days after application, 100%=total damage, read-out: Percentage phytotoxicity ECHCG. As to the method: as §1
In test [4] the test system is Abutilon theophrasti. Briefly: Glasshouse assay for herbicidal activity, post-emergence, ABUTH. The note with it: Abutilon theophrasti, 312 h, 250 g/ha, visual 13 days after application, 100%=total damage, read-out: Percentage phytotoxicity ABUTH. As to the method: as §1
The subject of test [5] is Zea mays (corn, maize, e.g. volunteer corn). Briefly: Glasshouse assay for herbicidal activity, post-emergence, ZEAMX. The note with it: Zea mays, 312 h, 250 g/ha, visual 13 days after application, 100%=total damage, read-out: Percentage phytotoxicity ZEAMX. As to the method:
as §1

The subject of test [6] is Setaria faberi. Briefly: Glasshouse assay for herbicidal activity, post-emergence, SETFA. The conditions noted are these: Setaria faberi, 312 h, 250 g/ha, visual 13 days after application, 100%=total damage, read-out: Percentage phytotoxicity SETFA. As to the method:
as §1

On to `C=CCOC1=C(c2ccc(C#CC)cc2OC)C(=O)C2CCC1C2` (stereo not drawn) [Compound P3], for which the pest or weed control at 250 g/ha in test [1] is 70%; in test [2] it was 10%; in test [3], 100%; in test [4], 0%; in test [5] it was 100%; in test [6], 90%.

For `CC#Cc1ccc(C2=C(OCOC)C3CCC(C3)C2=O)c(OC)c1` (stereo not drawn) [Compound P4], the pest or weed control at 250 g/ha in test [1] was determined as 100%; in test [2], 0%; in test [3] it was 100%; in test [4] it was 10%; in test [5], 100%; in test [6], 100%.

Take `CC#Cc1ccc(C2=C(OC(=O)c3ccc(F)cc3)C3CCC(C3)C2=O)c(OC)c1` (stereo not drawn) [Compound P5]: the pest or weed control at 250 g/ha turned out to be 90% in test [1]; 30% in test [2]; 100% in test [3]; 50% in test [4]; 100% in test [5]; 90% in test [6].

On to `CC#Cc1ccc(C2=C(OC(=O)CC)C3CCC(C3)C2=O)c(OC)c1` (stereo not drawn) [Compound P6], for which the pest or weed control at 250 g/ha in test [1] was 90%; in test [2] it was 40%; in test [3], 100%; in test [4], 60%; in test [5], 100%; in test [6], 90%.

On to `CC#Cc1ccc(C2=C(OC(=O)OC)C3CCC(C3)C2=O)c(OC)c1` (stereo not drawn) [Compound P7], for which the pest or weed control at 250 g/ha is 90% in test [1]; 30% in test [2]; 100% in test [3]; 40% in test [4]; 100% in test [5]; 90% in test [6].

On to `CC#Cc1ccc(C2=C(OC(=O)OCC)C3CCC(C3)C2=O)c(OC)c1` (stereo not drawn) [Compound P8], for which the pest or weed control at 250 g/ha in test [1] was determined as 90%; in test [2], 20%; in test [3] it was 100%; in test [4], 60%; in test [5], 100%; in test [6], 90%.

Regarding `CC#Cc1ccc(C2=C(OC(=O)C(C)C)C3CCC(C3)C2=O)c(OC)c1` (stereo not drawn) [Compound P10], the pest or weed control at 250 g/ha in test [1] turned out to be 90%; in test [2] it was 40%; in test [3], 100%; in test [4] it was 70%; in test [5], 100%; in test [6], 90%.

As for `CC#Cc1ccc(C2=C(OC(=O)C(C)(C)C)C3CCC(C3)C2=O)c(OC)c1` (stereo not drawn) [Compound P11], the pest or weed control at 250 g/ha in test [1] stood at 90%; in test [2], 20%; in test [3] it was 100%; in test [4] it was 70%; in test [5], 100%; in test [6], 100%.

Regarding `CC#Cc1ccc(C2=C(OC(=O)c3ccccc3)C3CCC(C3)C2=O)c(OC)c1` (stereo not drawn) [Compound P12], the pest or weed control at 250 g/ha in test [1] was found to be 100%; in test [2], 20%; in test [3], 100%; in test [4], 70%; in test [5] it was 100%; in test [6] it was 90%.

Turning to `CC#Cc1ccc(C2=C(OC(=O)Sc3ccccc3)C3CCC(C3)C2=O)c(OC)c1` (stereo not drawn) [Compound P13], the pest or weed control at 250 g/ha was determined as 90% in test [1]; 60% in test [2]; 100% in test [3]; 40% in test [4]; 100% in test [5]; 100% in test [6].

As to `CC#Cc1ccc(C2=C(OC(=O)SCC)C3CCC(C3)C2=O)c(OC)c1` (stereo not drawn) [Compound P14], the pest or weed control at 250 g/ha was 90% in test [1]; 20% in test [2]; 100% in test [3]; 70% in test [4]; 100% in test [5]; 100% in test [6].

As to `CC#Cc1ccc(C2=C(OC(=O)SC(C)C)C3CCC(C3)C2=O)c(OC)c1` (stereo not drawn) [Compound P15], the pest or weed control at 250 g/ha in test [1] came out at 90%; in test [2], 10%; in test [3], 100%; in test [4], 70%; in test [5] it was 100%; in test [6] it was 100%.

As to `CC#Cc1ccc(C2=C(OS(C)(=O)=O)C3CCC(C3)C2=O)c(OC)c1` (stereo not drawn) [Compound P16], the pest or weed control at 250 g/ha came to 80% in test [1]; 40% in test [2]; 90% in test [3]; 40% in test [4]; 100% in test [5]; 70% in test [6].

For `CC#Cc1ccc(C2=C(OS(=O)(=O)CC)C3CCC(C3)C2=O)c(OC)c1` (stereo not drawn) [Compound P17], the pest or weed control at 250 g/ha in test [1] was 90%; in test [2], 0%; in test [3], 90%; in test [4], 70%; in test [5] it was 100%; in test [6], 80%.

For the compound `C=CC(=O)OC1=C(c2ccc(C#CC)cc2OC)C(=O)C2CCC1C2` (stereo not drawn) [Compound P18], the pest or weed control at 250 g/ha was found to be 90% in test [1]; 30% in test [2]; 100% in test [3]; 70% in test [4]; 100% in test [5]; 90% in test [6].

These data come from US10662138B2, “Herbicidal propynyl-phenyl compounds” (Syngenta Participations AG, priority 2014, dated 2020).
